Assay [1] addresses T1, 3',5'-cyclic-AMP phosphodiesterase 4B (Homo sapiens, UniProt Q07343). In words: Inhibition of recombinant PDE4B1 (unknown origin) expressed in Sf9 cells at 30 uM pre-incubated with compound for 15 mins before incubation with cAMP substrate for 1 hr.
Assay [2] concerns the target 3',5'-cyclic-AMP phosphodiesterase 4D (Homo sapiens, UniProt Q08499). In words: Inhibition of recombinant PDE4D2 (unknown origin) expressed in Sf9 cells pre-incubated with compound for 15 mins before incubation with cAMP substrate for 1 hr.
Assay [3] addresses T1, 3',5'-cyclic-AMP phosphodiesterase 4B. In words: Inhibition of recombinant PDE4B1 (unknown origin) expressed in Sf9 cells pre-incubated with compound for 15 mins before incubation with cAMP substrate for 1 hr.
The next assay deals with RAW264.7. In words: Inhibition of LPS-induced TNFalpha production in mouse RAW264.7 cells pre-incubated with compound for 30 mins before LPS challenge by ELISA. Type of assay: functional, cell-based. On the technique in general: In an ELISA, binding on a coated surface is turned into a signal by an enzyme label.

Chain of 3',5'-cyclic-AMP phosphodiesterase 4D (Q08499 whole entry): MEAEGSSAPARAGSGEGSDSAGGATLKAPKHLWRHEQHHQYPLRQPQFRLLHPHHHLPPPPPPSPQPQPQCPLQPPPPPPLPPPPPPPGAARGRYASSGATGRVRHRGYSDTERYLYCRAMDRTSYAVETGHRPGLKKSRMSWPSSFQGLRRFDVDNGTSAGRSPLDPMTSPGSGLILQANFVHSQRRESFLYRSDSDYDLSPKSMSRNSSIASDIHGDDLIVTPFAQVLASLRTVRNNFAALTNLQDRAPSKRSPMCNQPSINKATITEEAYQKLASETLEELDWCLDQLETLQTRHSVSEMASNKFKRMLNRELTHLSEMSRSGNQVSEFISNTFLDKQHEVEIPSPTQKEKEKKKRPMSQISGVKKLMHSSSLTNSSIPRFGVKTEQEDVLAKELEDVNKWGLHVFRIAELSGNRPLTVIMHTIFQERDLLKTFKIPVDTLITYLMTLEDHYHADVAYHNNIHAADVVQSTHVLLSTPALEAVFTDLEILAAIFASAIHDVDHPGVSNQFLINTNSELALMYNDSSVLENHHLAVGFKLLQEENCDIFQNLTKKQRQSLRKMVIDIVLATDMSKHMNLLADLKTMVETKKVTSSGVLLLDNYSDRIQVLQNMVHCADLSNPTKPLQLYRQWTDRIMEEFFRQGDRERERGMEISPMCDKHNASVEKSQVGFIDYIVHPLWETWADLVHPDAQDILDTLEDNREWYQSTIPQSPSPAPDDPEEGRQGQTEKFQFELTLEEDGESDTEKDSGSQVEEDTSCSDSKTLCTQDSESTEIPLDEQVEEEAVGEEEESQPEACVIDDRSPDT
T1 sequence (Q07343 whole entry): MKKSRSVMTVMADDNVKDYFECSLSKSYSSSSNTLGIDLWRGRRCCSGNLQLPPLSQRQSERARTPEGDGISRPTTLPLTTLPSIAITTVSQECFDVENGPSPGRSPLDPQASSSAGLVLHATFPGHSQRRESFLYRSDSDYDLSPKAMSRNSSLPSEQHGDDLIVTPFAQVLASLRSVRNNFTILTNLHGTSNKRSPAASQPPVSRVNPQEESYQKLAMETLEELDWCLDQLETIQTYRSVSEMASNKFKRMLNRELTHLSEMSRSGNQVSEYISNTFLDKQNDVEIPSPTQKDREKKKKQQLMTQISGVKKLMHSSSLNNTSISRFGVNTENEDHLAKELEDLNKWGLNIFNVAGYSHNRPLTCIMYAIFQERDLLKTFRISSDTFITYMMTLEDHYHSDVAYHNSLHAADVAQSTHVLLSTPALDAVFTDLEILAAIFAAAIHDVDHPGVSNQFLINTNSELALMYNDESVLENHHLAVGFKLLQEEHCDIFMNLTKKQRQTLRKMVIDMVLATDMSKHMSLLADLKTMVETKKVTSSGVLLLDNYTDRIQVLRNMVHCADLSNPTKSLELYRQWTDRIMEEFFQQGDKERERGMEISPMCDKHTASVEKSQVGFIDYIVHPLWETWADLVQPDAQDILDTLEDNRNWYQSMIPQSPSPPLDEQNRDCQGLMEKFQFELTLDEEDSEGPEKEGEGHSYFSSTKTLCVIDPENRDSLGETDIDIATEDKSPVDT

Turning to `CCOC(=O)C1=CN(Cc2ccc(Cl)cc2)C=C(C(=O)OCC)C1c1cccc(F)c1`, the inhibition (as a rule, the change of the read-out against control, counted positive when it falls) in assay [1] was 8%.

For `CCOC(=O)C1=CN(Cc2ccccc2Cl)C=C(C(=O)OCC)C1c1ccc(OC)cc1`, the inhibition in assay [1] came to 58%.

As to `CCOC(=O)C1=CN(Cc2ccc(OC)cc2)C=C(C(=O)OCC)C1c1ccc(Cl)cc1`, the inhibition in assay [1] came to 23%.

For the compound `C=CCN1C=C(C(=O)OCC)C(c2ccc(Cl)cc2)C(C(=O)OCC)=C1`, the inhibition in assay [1] was found to be 49.5%.

With `CCOC(=O)C1=CN(Cc2ccc(C(F)(F)F)cc2)C=C(C(=O)OCC)C1c1ccc(O)cc1`, the inhibition in assay [1] worked out at 35%.

As for `CCOC(=O)C1=CN(Cc2ccc(Cl)cc2)C=C(C(=O)OCC)C1c1ccc(Cl)cc1`, the inhibition in assay [1] is 15%.

For the compound `CCOC(=O)C1=CN(Cc2ccc3c(c2)OCO3)C=C(C(=O)OCC)C1c1ccc(OC)cc1`, in assay [1], the inhibition came to 42%.

As to `CCOC(=O)C1=CN(Cc2ccc(OC)c(OC)c2)C=C(C(=O)OCC)C1c1cccc2ccccc12`, the inhibition in assay [1] turned out to be 75%.

As to `CCOC(=O)C1=CN(c2ccc(OC)cc2)C=C(C(=O)OCC)C1c1ccc(Cl)cc1`, the inhibition in assay [1] was 33%.

Consider `CCOC(=O)C1=CN(Cc2ccccc2Cl)C=C(C(=O)OCC)C1c1ccccc1`, for which, in assay [1], the inhibition stood at 33%.

Take `CCOC(=O)C1=CN(CC2CCCCC2)C=C(C(=O)OCC)C1c1ccc(Cl)cc1`: the inhibition in assay [1] was determined as 28%.

`CCCCCCCCN1C=C(C(=O)OCC)C(c2ccc(OC)cc2)C(C(=O)OCC)=C1`: the inhibition in assay [1] amounted to 25%.

In the case of `CCOC(=O)C1=CN(c2ccc(Cl)cc2)C=C(C(=O)OCC)C1c1ccc(Cl)cc1`, the inhibition in assay [1] worked out at 23%.

With `CCOC(=O)C1=CN(c2ccccc2)C=C(C(=O)OCC)C1c1ccc(Cl)cc1`, the inhibition in assay [1] amounted to 30.5%.

For `CCOC(=O)C1=CN(Cc2ccc(OC)cc2)C=C(C(=O)OCC)C1c1cccc(F)c1`, in assay [1], the inhibition came to 28%.

In the case of `CCOC(=O)C1=CN(Cc2ccc(OC)c(OC)c2)C=C(C(=O)OCC)C1c1ccc(Cl)cc1`, the IC50 (usually the concentration that gives 50% inhibition) in assay [2] is 2.78 µM; in assay [3] it was 3.71 µM. Further, the inhibition in assay [1] was determined as 80%.

Consider `CCOC(=O)C1=CN(Cc2ccc(OC)c(OC)c2)C=C(C(=O)OCC)C1c1cccc([N+](=O)[O-])c1`, for which the IC50 in assay [2] stood at 2.89 µM; in assay [3] it was 1.57 µM. Besides, the inhibition in assay [1] came to 88%.

For the compound `CCOC(=O)C1=CN(Cc2ccc(OC)c(OC)c2)C=C(C(=O)OCC)C1c1c[nH]c2ccccc12`, the IC50 with RAW264.7 was determined as 3.2 µM; in assay [2], 0.65 µM; in assay [3], 0.54 µM. In addition, the inhibition in assay [1] was determined as 95%.

For the compound `CCOC(=O)C1=CN(Cc2ccc(OC)c(OC)c2)C=C(C(=O)OCC)C1c1cccc(Cl)c1`, the inhibition in assay [1] came out at 78%.

On to `CCOC(=O)C1=CN(Cc2ccc(C(F)(F)F)cc2)C=C(C(=O)OCC)C1c1ccc(OC)cc1`, for which, in assay [1], the inhibition worked out at 21%.

Take `CCOC(=O)C1=CN(Cc2cccc(Cl)c2)C=C(C(=O)OCC)C1Cc1ccccc1`: the inhibition in assay [1] came to 31%.

`CCOC(=O)C1=CN(Cc2ccccc2OC)C=C(C(=O)OCC)C1C1CC1`: the inhibition in assay [1] worked out at 48%.

Turning to `CCOC(=O)C1=CN(Cc2ccc(OC)c(OC)c2)C=C(C(=O)OCC)C1Cc1ccccc1`, the inhibition in assay [1] was 79%.

Consider `CCOC(=O)C1=CN(c2ccc(Cl)cc2)C=C(C(=O)OCC)C1Cc1ccccc1`, for which the inhibition in assay [1] was found to be 57.5%.

As to `CCCCCCCCCCCCCCCCN1C=C(C(=O)OCC)C(c2ccc(OC)cc2)C(C(=O)OCC)=C1`, the inhibition in assay [1] worked out at 17%.

In the case of `C=CCN1C=C(C(=O)OCC)C(c2ccc(O)cc2)C(C(=O)OCC)=C1`, the inhibition in assay [1] was determined as 51.5%.

Consider `CCOC(=O)C1=CN(Cc2ccccc2Cl)C=C(C(=O)OCC)C1c1ccc(O)cc1`, for which, in assay [1], the inhibition worked out at 49%.

For the compound `CCOC(=O)C1=CN(Cc2ccc3c(c2)OCO3)C=C(C(=O)OCC)C1c1ccc(O)cc1`, the inhibition in assay [1] came to 72%.

For the compound `CCOC(=O)C1=CN(Cc2ccc(OC)cc2)C=C(C(=O)OCC)C1c1ccc([N+](=O)[O-])cc1`, the inhibition in assay [1] came out at 38%.

These data come from ChEMBL document CHEMBL2311319, “Discovery of novel 1,4-dihydropyridine-based PDE4 inhibitors” (Bioorg Med Chem Lett, 2013).
